Earlier results in US20180325839A1, “TRANSDERMAL PATCHES” (BUZZZ PHARMACEUTICALS LIMITED, priority 2015, published 2018).

Experiments:
[1] = local anaesthetic during cataract surgery

CCCN1CCCC[C@H]1C(=O)Nc1c(C)cccc1C [ropivacaine, (2S)—N-(2,6-dimethylphenyl)-1-propyl-2-piperidinecarboxamide]
Half-life compared with lidocaine [1]: longer
Potency relative to lidocaine, dose-for-dose [1]: as much as four times as potent as lidocaine
Skin permeation characteristics compared with lidocaine saturated H2O (ropivacaine saturated H2O): significantly poorer
In vivo skin penetration compared to a saturated solution of lidocaine (saturated solution of ropivacaine): poor
